The values below come from patent US12383549B2, “Combination therapy of crenolanib and apoptosis pathway agents for the treatment of proliferative disorders” (Arog Pharmaceuticals, Inc., priority 2020, dated 2025).

The test system of assay [1] is PDGFR, FLT3, and TRK kinases. As to conditions: versus other kinases, including c-KIT, VEGFR2, TIE2, FGFR2, EGFR, ERBB2, and SRC; cited from earlier work.
The subject of assay [2] is relapsed or refractory AML patients with activating FLT3 mutations (FLT3-ITD). The assay is described as follows: Clinical trial NCT02400281: oral crenolanib besylate in combination with intravenous azacitidine, single-patient case reports. Type of assay: in vivo, human. From the text:
For the majority of patients, the clinical response is short-lived. Response criteria for AML clinical trials are adapted from the International Working Group for AML (Cheson, Bennett et al. 2003). Responders are patients who obtain a Complete Response (CR), Complete Response with incomplete blood count recovery (CRi), or Partial Remission (PR). Briefly, criteria are as follows: • 1. Complete Remission (CR): • a. Peripheral blood counts: • i. No circulating blasts • ii. Neutrophil count ≥1.0×10^9/L • iii. Platelet count ≥100×10^9/L • b. Bone marrow aspirate and biopsy: • i. ≤5% blasts • ii. No Auer Rods • iii. No extramedullary leukemia • 2. Complete remission with incomplete blood count recovery (CRi): • a. Peripheral blood counts: • i. No circulating blasts • ii. Neutrophil count <1.0×10^9/L, or • iii. Platelet count <100×10^9/L • b. Bone marrow aspirate and biopsy • i. ≤5% blasts • ii. No Auer Rods • iii. No extramedullary leukemia • 3. Partial remission: • a. All CR criteria if abnormal before treatment except: • b. ≥50% reduction in bone marrow blast but still >5%
To overcome the poor prognosis of the persistent FLT3-ITD mutation, the patient was provided oral crenolanib besylate in combination with intravenous azacitidine on a clinical trial for relapsed or refractory AML patients with activating FLT3 mutations (NCT02400281). At baseline, the patient presented with 64% bone marrow blasts. The patient began treatment with 75 mg/m^2/day of azacitidine for 7 days and 60 mg of oral crenolanib besylate three times daily for the remainder of the 28 days cycle.
To overcome the poor prognosis of the persistent FLT3-ITD mutation, the patient was provided oral crenolanib besylate in combination with intravenous azacitidine on a clinical trial for relapsed or refractory AML patients with activating FLT3 mutations (NCT02400281). At baseline, the patient presented with 13% bone marrow blasts. The patient began treatment with 75 mg/m^2/day of azacitidine for 7 days and 80 mg of oral crenolanib besylate three times daily.

The subject of assay [3] is PB and BM blasts of leukemia patients. The settings on record: cited from earlier work.

Consider `CC1(COc2ccc3c(c2)ncn3-c2ccc3cccc(N4CCC(N)CC4)c3n2)COC1` [crenolanib], for which, in assay [1], the “selectivity for PDGFR, FLT3, and TRK kinases” value is “significantly more selective”.

For the molecule `CC1(COc2ccc3c(c2)ncn3-c2ccc3cccc(N4CCC(N)CC4)c3n2)COC1` [crenolanib besylate], the bone marrow blasts in assay [2] (Example 1: person, FLT3-ITD relapsed AML, baseline 64% blasts, azacitidine 75 mg/m^2/day for 7 days + crenolanib besylate 60 mg oral three times daily, after 27 days) is 3%; in assay [2] (Example 2: person, FLT3-ITD AML relapsed after transplant, baseline 13% blasts, azacitidine 75 mg/m^2/day for 7 days + crenolanib besylate 80 mg oral three times daily, after 28 days), 1%. In addition, the clinical response entry in assay [2] (Example 1: same patient and regimen with azacitidine, after 27 days, neutrophils recovered, platelets partially recovered) was “CRi”; in assay [2] (Example 2: same patient and regimen with azacitidine, after 28 days) it was “morphological leukemia free state”. Besides, the “clinical response on continued single agent therapy” value in assay [2] (Example 2: single agent crenolanib besylate for an additional 28 days) is given as “maintained a MLFS”.

For the molecule `CNC(=O)c1cc(Oc2ccc(NC(=O)Nc3ccc(Cl)c(C(F)(F)F)c3)cc2)ccn1` [sorafenib], the “bone marrow (BM) blast reduction” value in assay [3] was “only modest BM blast reductions”.
